# From patent publication US10059694B2, “2-aminopyrimidine compound and pharmaceutical composition and use thereof” (Shanghai Institute of Materia Medica, Chinese Academy of …, priority 2014, dated 2018)
# Key:
# EGFR^wt = target: T1, EGFR^wt (Homo sapiens, UniProt P00533); experiment: kinase inhibitory activity test (ELISA), EGFR^WT; format: biochemical; settings: ATP 5 μM, 1 hour at 37° C.
# T1 construct: purchased Millipore
# Protocol: (§1) The enzyme substrate poly (glutamic acid, tyrosine)4:1 (Sigma) was diluted with potassium-free PBS (10 mM sodium phosphate buffer, 150 mM NaCl, pH 7.2-7.4) to 20 μg/mL, plate coated with 125 μL/well, reacted for 12-16 hours at 37° C. After the liquid in the wells was discarded, the plates were washed three times with 200 μL/well of T-PBS (PBS containing 0.1% Tween-20), and each time for 5 minutes, and then dried for 1-2 hours in an oven at 37° C. 50 μL of ATP solution diluted with reaction buffer (50 mM HEPES pH 7.4, 50 mM MgCl2, 5 mM MnCl2, 0.2 mM Na3VO4, 1 mM DTT) was added into each well and the final concentration was 5 μM. The compounds were diluted with 1% DMSO to suitable concentrations and were added at 10 μL/well. […] The above reaction system was reacted for 1 hour at 37° C. shaking table (100 rpm). Control wells with no enzyme and control wells with DMSO solvent were set in each experiment. After the reaction was completed, the plates were washed three times with T-PBS. The anti-phosphotyrosine primary antibody PY99 (Santa Cruz) was added at 100 μL/well and the antibody was diluted with T-PBS containing BSA 5 mg/mL by 1:1000. The mixture was reacted for 0.5 h at 37° C. shaking table, the plates were washed three times with T-PBS. The secondary antibody which was horseradish peroxidase-labeled goat anti-mouse IgG was added at 100 μL/well (the antibody was diluted with T-PBS containing BSA 5 mg/mL by 1:2000). The mixture was reacted for 0.5 h at 37° C. shaking table, the plates were washed three times with T-PBS. 2 l/mL of OPD coloring solution was added at 100 μL/well (diluted with 0.1 M citric acid-sodium citrate buffer (pH=5.4) containing 0.03% H2O2) and dark reacted for 1 to 10 minutes at 25° C. 2 M H2SO4 was added at 50 μL/well to terminate the reaction. Reading was carried out with an adjustable wavelength microplate enzyme-labeled instrument SPECTRA MAX 190 at 490 nm wavelength.
# (§2) The IC50 value was calculated by the four-parameter fitting of the suppression curve.
# EGFR^T790M/L858R = target: T2, EGFR^T790M/L858R (Homo sapiens, UniProt P00533, L858R/T790M); experiment: kinase inhibitory activity test (ELISA), EGFR^T790M/L858R; format: biochemical; settings: for IC50: ELISA, ATP 5 μM, 1 hour at 37° C.; for kinase inhibitory activity (in words): summary of Table 1
# T2 construct: purchased Millipore
# T2 sequence (P00533 25-1210 T790M/L858R): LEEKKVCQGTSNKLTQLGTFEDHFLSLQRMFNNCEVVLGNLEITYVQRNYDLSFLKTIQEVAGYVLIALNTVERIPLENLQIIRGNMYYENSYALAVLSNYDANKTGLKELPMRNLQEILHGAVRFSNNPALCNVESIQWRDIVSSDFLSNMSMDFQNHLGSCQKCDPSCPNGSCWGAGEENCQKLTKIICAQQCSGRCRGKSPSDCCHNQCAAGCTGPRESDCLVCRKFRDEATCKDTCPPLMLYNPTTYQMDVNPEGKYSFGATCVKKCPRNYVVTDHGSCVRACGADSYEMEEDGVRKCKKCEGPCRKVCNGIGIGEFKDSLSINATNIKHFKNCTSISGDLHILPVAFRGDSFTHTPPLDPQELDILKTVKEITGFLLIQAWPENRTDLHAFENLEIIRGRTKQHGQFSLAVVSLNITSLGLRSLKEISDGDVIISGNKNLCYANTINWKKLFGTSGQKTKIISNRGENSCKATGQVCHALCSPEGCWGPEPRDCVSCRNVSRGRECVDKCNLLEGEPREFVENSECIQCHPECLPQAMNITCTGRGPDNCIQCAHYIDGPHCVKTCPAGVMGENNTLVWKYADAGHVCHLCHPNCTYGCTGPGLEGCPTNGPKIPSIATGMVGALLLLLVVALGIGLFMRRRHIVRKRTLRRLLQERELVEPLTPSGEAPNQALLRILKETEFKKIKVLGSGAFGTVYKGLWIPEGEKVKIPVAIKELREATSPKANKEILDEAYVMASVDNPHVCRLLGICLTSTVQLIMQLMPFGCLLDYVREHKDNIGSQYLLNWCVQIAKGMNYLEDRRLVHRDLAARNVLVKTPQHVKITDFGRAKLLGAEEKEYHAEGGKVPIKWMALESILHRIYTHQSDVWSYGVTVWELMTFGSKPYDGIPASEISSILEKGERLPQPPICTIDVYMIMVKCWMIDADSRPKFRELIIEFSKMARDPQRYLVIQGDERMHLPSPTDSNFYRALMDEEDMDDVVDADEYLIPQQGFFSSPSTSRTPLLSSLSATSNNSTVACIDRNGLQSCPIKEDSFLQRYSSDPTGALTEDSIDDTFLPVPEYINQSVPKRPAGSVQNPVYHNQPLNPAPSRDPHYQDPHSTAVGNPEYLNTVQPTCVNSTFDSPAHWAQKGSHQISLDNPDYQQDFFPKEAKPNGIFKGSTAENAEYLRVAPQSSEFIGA
# Protocol: as §1, §2
# IGF-1R = target: T3, IGF-1R (Homo sapiens, UniProt P08069); experiment: kinase inhibitory activity test (ELISA), IGF-1R; format: biochemical; settings: ATP 5 μM, 1 hour at 37° C.
# T3 construct: purchased Millipore
# T3 sequence (P08069 31-1367): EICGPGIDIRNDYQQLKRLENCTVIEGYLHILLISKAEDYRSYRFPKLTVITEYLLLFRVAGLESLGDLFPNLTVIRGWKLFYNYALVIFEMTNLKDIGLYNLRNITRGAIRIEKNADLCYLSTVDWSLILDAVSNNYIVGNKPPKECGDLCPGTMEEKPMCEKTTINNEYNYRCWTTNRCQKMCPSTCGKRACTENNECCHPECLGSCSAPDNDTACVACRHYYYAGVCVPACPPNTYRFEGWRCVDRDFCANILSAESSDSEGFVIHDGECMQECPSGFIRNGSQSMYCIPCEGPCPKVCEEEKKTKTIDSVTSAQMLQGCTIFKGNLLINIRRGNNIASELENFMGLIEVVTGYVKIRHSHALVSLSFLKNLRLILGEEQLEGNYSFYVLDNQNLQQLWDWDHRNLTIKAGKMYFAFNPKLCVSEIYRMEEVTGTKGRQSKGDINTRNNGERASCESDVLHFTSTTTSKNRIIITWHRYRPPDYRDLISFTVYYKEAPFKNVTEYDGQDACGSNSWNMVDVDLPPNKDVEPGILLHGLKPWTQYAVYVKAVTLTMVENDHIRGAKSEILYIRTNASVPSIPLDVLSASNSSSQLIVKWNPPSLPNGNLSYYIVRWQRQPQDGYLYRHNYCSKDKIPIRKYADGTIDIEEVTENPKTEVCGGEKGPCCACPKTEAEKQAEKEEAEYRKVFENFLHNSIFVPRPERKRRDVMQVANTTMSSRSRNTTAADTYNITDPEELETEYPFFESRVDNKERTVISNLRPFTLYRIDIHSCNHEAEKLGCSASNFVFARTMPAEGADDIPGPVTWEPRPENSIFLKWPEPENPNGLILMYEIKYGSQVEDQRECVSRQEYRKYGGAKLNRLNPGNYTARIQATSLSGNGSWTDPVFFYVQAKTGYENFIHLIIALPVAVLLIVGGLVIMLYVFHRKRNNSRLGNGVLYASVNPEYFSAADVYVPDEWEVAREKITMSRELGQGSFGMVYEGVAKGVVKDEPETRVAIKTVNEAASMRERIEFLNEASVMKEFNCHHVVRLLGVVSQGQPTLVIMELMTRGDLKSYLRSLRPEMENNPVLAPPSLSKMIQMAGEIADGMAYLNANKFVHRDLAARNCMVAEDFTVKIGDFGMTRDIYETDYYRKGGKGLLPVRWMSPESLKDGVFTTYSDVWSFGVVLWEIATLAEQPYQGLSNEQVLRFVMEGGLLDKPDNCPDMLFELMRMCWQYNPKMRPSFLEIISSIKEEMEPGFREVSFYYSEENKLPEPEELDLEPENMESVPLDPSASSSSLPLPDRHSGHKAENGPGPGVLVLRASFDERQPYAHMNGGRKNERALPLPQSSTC
# Protocol: The enzyme substrate poly (glutamic acid, tyrosine)4:1 (Sigma) was diluted with potassium-free PBS (10 mM sodium phosphate buffer, 150 mM NaCl, pH 7.2-7.4) to 20 μg/mL, plate coated with 125 μL/well, reacted for 12-16 hours at 37° C. After the liquid in the wells was discarded, the plates were washed three times with 200 μL/well of T-PBS (PBS containing 0.1% Tween-20), and each time for 5 minutes, and then dried for 1-2 hours in an oven at 37° C. 50 μL of ATP solution diluted with reaction buffer (50 mM HEPES pH 7.4, 50 mM MgCl2, 5 mM MnCl2, 0.2 mM Na3VO4, 1 mM DTT) was added into each well and the final concentration was 5 μM. The compounds were diluted with 1% DMSO to suitable concentrations and were added at 10 μL/well. Then different types of tyrosine kinase proteins (including EGFR^wt, EGFR^T790M/L858R and IGF-1R, purchased from Millipore) diluted with 40 μL of reaction buffer were added. The above reaction system was reacted for 1 hour at 37° C. shaking table (100 rpm). Control wells with no enzyme and control wells with DMSO solvent were set in each experiment. After the reaction was completed, the plates were washed three times with T-PBS. The anti-phosphotyrosine primary antibody PY99 (Santa Cruz) was added at 100 μL/well and the antibody was diluted with T-PBS containing BSA 5 mg/mL by 1:1000. The mixture was reacted for 0.5 h at 37° C. shaking table, the plates were washed three times with T-PBS. The secondary antibody which was horseradish peroxidase-labeled goat anti-mouse IgG was added at 100 μL/well (the antibody was diluted with T-PBS containing BSA 5 mg/mL by 1:2000). The mixture was reacted for 0.5 h at 37° C. shaking table, the plates were washed three times with T-PBS. 2 l/mL of OPD coloring solution was added at 100 μL/well (diluted with 0.1 M citric acid-sodium citrate buffer (pH=5.4) containing 0.03% H2O2) and dark reacted for 1 to 10 minutes at 25° C. 2 M H2SO4 was added at 50 μL/well to terminate the reaction. Reading was carried out with an adjustable wavelength microplate enzyme-labeled instrument SPECTRA MAX 190 at 490 nm wavelength.
# as §2
# [1] = test system: human epidermal carcinoma A431 cell line; experiment: SRB proliferation assay, A431 cells; format: cell-based; settings: A-431, SRB, 72 h, read-out: IC50 A431
# Protocol: (§3) Cell lines: human epidermal carcinoma A431 cell line and human non-small cell lung cancer NCI-H1975 cell line was purchased from the American Standard Biology Collection Center (ATCC).
# (§4) Methods: sulforhodamine B (SRB) method, which was as follows: certain number of different tumor cells in logarithmic growth phase were inoculated on 96-well culture plates. After cultured for 24 h to cell adherence, different concentrations of the test compounds of the invention were added. Each concentration was provided with three wells, and a corresponding concentration of DMSO solvent control and a cell-free zeroing well were set. After the cells were treated with the medicine for 72 h, the culture medium was discarded and 100 μL of 10% pre-cooled trichloroacetic acid solution was added to fix the cells. After placed for 1 h at 4° C., it was washed for 5 times with distilled water and dried naturally. Then 100 μL SRB (4 mg/mL) (Sigma) solution was added and stained for 15 min at room temperature. The staining solution was discarded and washed for 5 times with 1% glacial acetic acid and dried. Finally, 150 μL of 10 mM Tris solution (pH 10.5) was added and the OD value was measured at 515 nm with adjustable wavelength microplate enzyme-labeled instrument (VERSAmax™, Molecular Device Corporation, Sunnyvale, Calif., USA).
# [2] = test system: human non-small cell lung cancer NCI-H1975 cell line; experiment: SRB proliferation assay, NCI-H1975 cells; format: cell-based; settings: NCI-H1975, SRB, 72 h, read-out: IC50 NCI-H1975
# Protocol: as §3
# as §4, with “USA). […] Based on the inhibitory effect of the 2-aminopyrimidine compounds on the growth of these cells, the half maximal inhibitory concentration (IC50) values were calculated, as shown in Table 2.” for “USA).”
# T1 sequence (P00533 25-1210): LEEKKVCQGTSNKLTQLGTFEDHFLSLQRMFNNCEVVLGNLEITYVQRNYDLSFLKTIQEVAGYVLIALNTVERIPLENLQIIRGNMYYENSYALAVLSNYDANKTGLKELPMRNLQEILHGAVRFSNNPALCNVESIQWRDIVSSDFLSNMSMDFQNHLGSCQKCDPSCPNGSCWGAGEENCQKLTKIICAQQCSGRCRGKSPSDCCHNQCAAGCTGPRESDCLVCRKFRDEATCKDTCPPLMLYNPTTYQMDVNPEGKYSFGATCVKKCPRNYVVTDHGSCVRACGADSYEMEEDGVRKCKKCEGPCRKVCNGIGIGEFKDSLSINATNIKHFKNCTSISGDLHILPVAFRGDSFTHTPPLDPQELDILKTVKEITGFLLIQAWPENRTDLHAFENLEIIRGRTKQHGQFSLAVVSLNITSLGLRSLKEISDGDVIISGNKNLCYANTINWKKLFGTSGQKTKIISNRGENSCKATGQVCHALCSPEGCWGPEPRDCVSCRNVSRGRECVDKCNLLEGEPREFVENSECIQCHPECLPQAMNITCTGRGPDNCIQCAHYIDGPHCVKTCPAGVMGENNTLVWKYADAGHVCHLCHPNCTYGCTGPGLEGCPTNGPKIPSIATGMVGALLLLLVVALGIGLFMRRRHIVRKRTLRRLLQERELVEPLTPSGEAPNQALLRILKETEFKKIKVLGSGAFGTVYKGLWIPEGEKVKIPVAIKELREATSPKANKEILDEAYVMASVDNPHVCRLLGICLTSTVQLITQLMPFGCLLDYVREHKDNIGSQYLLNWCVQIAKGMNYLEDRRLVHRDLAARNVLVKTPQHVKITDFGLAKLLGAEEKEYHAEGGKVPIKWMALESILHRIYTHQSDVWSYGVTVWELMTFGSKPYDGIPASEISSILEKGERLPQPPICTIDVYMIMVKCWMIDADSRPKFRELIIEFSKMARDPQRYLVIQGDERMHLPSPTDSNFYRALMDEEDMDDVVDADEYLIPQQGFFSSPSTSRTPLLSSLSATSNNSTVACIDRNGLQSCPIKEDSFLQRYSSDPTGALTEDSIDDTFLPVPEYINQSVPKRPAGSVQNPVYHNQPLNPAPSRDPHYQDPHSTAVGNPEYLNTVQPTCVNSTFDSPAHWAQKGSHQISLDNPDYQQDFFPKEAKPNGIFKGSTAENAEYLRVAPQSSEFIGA
SMILES,IC50 (EGFR^wt) [nM],IC50 (EGFR^T790M/L858R) [nM],kinase inhibitory activity (in words) (EGFR^T790M/L858R),IC50 (IGF-1R) [nM],IC50 [1] [nM],IC50 [2] [nM]
"C=CC(=O)Nc1ccc(OC)c(Nc2ncc(Cl)c(Nc3ccc4ccccc4c3)n2)c1 [CCB120027, N-((3-((5-chloro-4-((naphthalen-2-yl)amino))pyrimidin-2-yl)amino)-4-methoxyphenyl)acrylamide]",172,2.2,potent,263,> 10000,403
Cc1ccc(NC(=O)/C=C/CN(C)C)cc1Nc1ncc(Cl)c(Nc2ccc3ccccc3c2)n1 [CCB145340],2220,28.7,,117,1610,864
"Cc1ccc(Nc2ncc(Br)c(Nc3ccc4ccccc4c3)n2)cc1NC(=O)/C=C/CN(C)C [CCB145348, (E)-N-((5-((5-bromo-4-((naphthalen-2-yl)amino))pyrimidin-2-yl)amino)-2-methylphenyl)-4-(dimethylamino)-2-butenamide]",470,42.5,,157,4660,1100
"Cc1ccc(NC(=O)/C=C/CN(C)C)cc1Nc1ncc(Br)c(Nc2ccc3ccccc3c2)n1 [CCB145339, (E)-N-((3-((5-bromo-4-((naphthalen-2-yl)amino))pyrimidin-2-yl)amino)-4-methylphenyl)-4-(dimethylamino)-2-butenamide]",4480,73.2,,48.3,2190,959
"COc1ccc(NC(=O)/C=C/CN(C)C)cc1Nc1nccc(Nc2ccc3ccccc3c2)n1 [CCB145242, (E)-N-((3-(4-((naphthalen-2-yl)amino)pyrimidin-2-yl)amino)-4-methoxyphenyl)-4-(dimethylamino)-2-butenamide]",54.1,56.6,,98.5,1040,885
"COc1ccc(NC(=O)/C=C/CN(C)C)cc1Nc1ncc(OC)c(Nc2ccc3ccccc3c2)n1 [CCB145268, (E)-N-((3-((5-methoxy-4-((naphthalen-2-yl)amino))pyrimidin-2-yl)amino)-4-methoxyphenyl)-4-(dimethylamino)-2-butenamide]",225,102,,182,1110,1160
"CN(C)C/C=C/C(=O)Nc1cccc(Nc2ncc(Cl)c(Nc3ccc4ccccc4c3)n2)c1 [CCB145333, (E)-N-((3-((5-chloro-4-((naphthalen-2-yl)amino))pyrimidin-2-yl)amino)phenyl)-4-(dimethylamino)-2-butenamide]",4750,24.2,,170,6220,632
"C=CC(=O)Nc1cc(CN2CCCN(C)CC2)cc(Nc2ncc(Cl)c(Nc3ccc4ccccc4c3)n2)c1 [CCB120105, N-((3-((5-chloro-4-((naphthalen-2-yl)amino))pyrimidin-2-yl)amino)-5-((4-methylhomopiperazin-1-yl)methyl)phenyl)acrylamide]",137,1.2,,77.3,576,151
"C=CC(=O)Nc1cc(Nc2ncc(Cl)c(Nc3ccc4ccccc4c3)n2)c(OC)cc1N1CCC(N(C)C)C1 (stereo not shown) [CCB120137, N-((5-((5-chloro-4-((naphthalen-2-yl)amino))pyrimidin-2-yl)amino)-2-(3-dimethylaminopyrrolidin-1-yl)-4-methoxyphenyl)acrylamide]",16.8,0.3,potent,56.4,425,167
"C=CC(=O)Nc1cc(CN2CCN(C)CC2)cc(Nc2ncc(Cl)c(Nc3ccc4ccccc4c3)n2)c1 [CCB120103, N-((3-((5-chloro-4-((naphthalene-2-yl)amino))pyrimidine-2-yl)amino)-5-((4-methylpiperazine-1-yl)methyl)phenyl)acrylamide]",102,3.1,,73.3,1020,131
